Values of other authors as cited in patent US20150132440A1, “DIPEPTIDE AND TRIPEPTIDE COMPOSITIONS AND USES” (4141 HOLDINGS, LLC, priority 2013, published 2015).
Where a SMILES comes first, the peptide text is derived from it.

How the values were obtained:
Caco-2 cells = details: for inhibition of H2O2-induced IL-8 secretion: Caco-2 cells pretreated with amino acids (1, 2, and 5 mM) for 2 hours, then 1 mM H2O2 for 6 hours, ELISA
L6 myotubes = details: for glucose uptake rate: L6 myotubes
[1] = test system: isolated skeletal muscles
[2] = test system: glucose transporter GLUT-4; details: compared with the other WPH components tested; for efficiency in translocating GLUT-4 to the PM: animal skeletal muscle
Akt = details: supplementation
[3] = ESR technique
[4] = test system: human dermal fibroblasts (HDFs); details: for protein expression levels of intracellular antioxidant enzymes SOD1, GSH and catalase: H2O2 stressed HDF cells; for H2O2 induced DNA damage / H2O2 induced ROS production / NF-κB activation: HDF cells

In the case of `N[C@@H](Cc1c[nH]cn1)C(=O)O` [His], the “GSH S-transferase (GST) activity” value (Caco-2 cells; Caco-2 cells) is listed as “increases” and the “inhibition of H2O2-induced IL-8 secretion” value (“inhibition” for short) (Caco-2 cells) is listed as “inhibition of H2O2-induced IL-8 secretion from Caco-2 cells was observed”.

In the case of `CC[C@H](C)[C@H](N)C(=O)N[C@H](C(=O)O)[C@@H](C)CC` [Ile-Ile, L-Isoleucyl-L-isoleucine] (H-Ile-Ile-OH), the glucose uptake rate (L6 myotubes) is given as “significant stimulation”.

In the case of `NCCCC[C@H](N)C(=O)O` [Lys], the “GSH S-transferase (GST) activity” value (Caco-2 cells; Caco-2 cells) is given as “increases” and the “inhibition” value (Caco-2 cells) is given as “inhibition of H2O2-induced IL-8 secretion from Caco-2 cells was observed”.

In the case of `CN(C)CCCn1cc(C2=C(c3c[nH]c4ccccc34)C(=O)NC2=O)c2ccccc21` [GF109203X], the “stimulation of glucose uptake by Ile-Leu under inhibitor treatment” value (L6 myotubes; L6 cells) is listed as “completely inhibited” and the “stimulation of glucose uptake by Ile-Leu under inhibitor treatment” value ([1]; isolated muscles) is listed as “completely inhibited”.

For Ile-Val, the glucose uptake rate (L6 myotubes) is listed as “significant stimulation”.

In the case of `CC(C)C[C@H](N)C(=O)O` [Leu, L-leucine], the “GSH S-transferase (GST) activity” value (Caco-2 cells; Caco-2 cells) is given as “elevated”, the catalase activity (Caco-2 cells; Caco-2 cells) is given as “elevated” and the “inhibition” value (Caco-2 cells) is given as “inhibition of H2O2-induced IL-8 secretion from Caco-2 cells was observed”.

In the case of `N[C@@H](Cc1c[nH]c2ccccc12)C(=O)O` [Trp], the “GSH S-transferase (GST) activity” value (Caco-2 cells; Caco-2 cells) is listed as “increases” and the “inhibition” value (Caco-2 cells) is listed as “inhibition of H2O2-induced IL-8 secretion from Caco-2 cells was observed”.

For `CC[C@H](C)[C@H](NC(=O)[C@@H](N)CC(C)C)C(=O)O` [L-Leucyl-L-isoleucine] (H-Leu-Ile-OH), the “efficiency in translocating GLUT-4 to the PM” value [2] is given as “greater efficiency”, the “efficiency of increasing glucose capture by skeletal muscle” value [2] is given as “greater efficiency” and the “activation of Akt” value (Akt) is given as “activation”.

For `CC[C@H](C)[C@H](N)C(=O)O` [Ile, L-isoleucine], the “GSH S-transferase (GST) activity” value (Caco-2 cells; Caco-2 cells) is listed as “elevated”, the catalase activity (Caco-2 cells; Caco-2 cells) is listed as “elevated” and the “inhibition” value (Caco-2 cells) is listed as “inhibition of H2O2-induced IL-8 secretion from Caco-2 cells was observed”. For the same compound, the “efficiency in translocating GLUT-4 to the PM” value [2] was “greater efficiency” and the “efficiency of increasing glucose capture by skeletal muscle” value [2] was “greater efficiency”.

In the case of `C[C@H](N)C(=O)O` [Ala], the GSH reductase activity (Caco-2 cells; Caco-2 cells) is given as “enhanced” and the “inhibition” value (Caco-2 cells) is given as “inhibition of H2O2-induced IL-8 secretion from Caco-2 cells was observed”.

In the case of `CC(C)C[C@H](NC(=O)[C@@H](N)CC(C)C)C(=O)O` [Leu-Leu, L-Leucyl-L-leucine], the glucose uptake rate (L6 myotubes) is given as “significant stimulation”.

In the case of `CC[C@H](C)[C@H](N)C(=O)N[C@@H](CC(C)C)C(=O)O` [Ile-Leu, L-Isoleucyl-L-Leucine] (H-Ile-Leu-OH), the glucose uptake rate (L6 myotubes) is given as “significant stimulation”, the glycogen contents ([1]; isolated muscles) is given as “increased” and the glucose uptake ([1]; isolated skeletal muscles) is given as “stimulated”.

For “SPP-1: peptide QLGNLGV derived from seaweed pipefish Syngnathus schlegeli”, the “hydroxyl radical scavenging activity” value [3] is given as “significant”, the “protein expression levels of intracellular antioxidant enzymes SOD1, GSH and catalase” value [4] is given as “increase” and the “H2O2 induced DNA damage” value [4] is given as “effectively suppressed”. The “H2O2 induced ROS production” value [4] was “effectively suppressed” and the NF-κB activation [4] was “block”.

In the case of `CC(C)[C@H](N)C(=O)O` [Val, valine], the “GSH S-transferase (GST) activity” value (Caco-2 cells; Caco-2 cells) is given as “elevated”, the catalase activity (Caco-2 cells; Caco-2 cells) is given as “elevated” and the “inhibition” value (Caco-2 cells) is given as “inhibition of H2O2-induced IL-8 secretion from Caco-2 cells was observed”.

For Leu-Val, the glucose uptake rate (L6 myotubes) is given as “significant stimulation”.

For “SPP-2: peptide SVMPVVA derived from seaweed pipefish Syngnathus schlegeli”, the “hydroxyl radical scavenging activity” value [3] is listed as “significant”, the “protein expression levels of intracellular antioxidant enzymes SOD1, GSH and catalase” value [4] is listed as “increase” and the “H2O2 induced DNA damage” value [4] is listed as “effectively suppressed”. The “H2O2 induced ROS production” value [4] was “effectively suppressed” and the NF-κB activation [4] was “block”.

For Val-Leu, the glucose uptake rate (L6 myotubes) is listed as “significant stimulation”.
